Results as given in patent US20220008388A1 (Certego Therapeutics Inc., priority 2018, published 2022).
“Also recorded” adds a separate entry of the source. Like-named read-outs stand apart in the source and are kept apart here.

Assays:
[1] = cited from earlier work
[2] = test system: d-amphetamine-induced hyperactivity; test: d-amphetamine-induced hyperlocomotion, rodent model of mania; format: in vivo; conditions: mice, 20 min before d-amphetamine 3.5 mg/kg
[3] = test system: immediate early gene c-fos expression in the brain; conditions: mouse
Description: (A) Mice were treated with a drug or vehicle solution for the control group using either intraperitoneal (i.p.), per oral (p.o.). subcutaneous (s.c.), intramuscular (i.m.) or intravenous (i.v.) delivery.
(C) After the aforementioned c-fos induction period, the mice were sacrificed and the c-fos induction was visualized using whole-brain immunostaining. The brains were then chemically cleared and imaged by light-sheet fluorescent microscopy (LSFM).
(D) The whole-brain scans are depicted as serial section datasets with an XYZ resolution of about 4×4×5 microns.
(E) The c-fos-positive cells were detected in these datasets using custom algorithms.
(F) The whole-brain distribution of the detected c-fos-positive cells was then represented in 3D as a spatial map of centroid points in the 3D space of the mouse brain.
(G) This 3D map distribution was registered to a reference mouse brain and spatially voxelized using overlapping 150-micron sphere voxels.
This method called “pharmacomapping” (implemented as a fee for service by CRO Certerra, Inc. Farmingdale, N.Y.) is based on a proprietary and largely automated drug-screening platform that comprises whole-brain detection of drug-evoked neuronal activation represented by drug-evoked expression of the immediate early gene (IEG) c-fos. Until now, the detection of c-fos as a marker of brain activation required time-consuming, laborious methods such as in situ hybridization or immunohistochemistry in brain tissue sections, followed by mounting the sections on microscopic slides, manual imaging, and largely visual quantification. Nevertheless, over the last two decades a number of studies used these methods to test drug-evoked activity in the mouse or rat brain for various psychoactive medications, including antipsychotics, antidepressants, stimulants and anxiolytics (Engber et al., 1998; Salminen et al., 1996; SEMBA et al., 1996; Slattery et al., 2005; Sumner et al., 2004).
In contrast to the older methods, the pharmacomapping method uses largely automated and standardized whole-brain immunostaining and brain clearing together with advanced microscopy (light-sheet fluorescence microscopy, LSFM), computational (e.g. machine learning) and statistical methods (FIG. 1; see, for example, the published U.S. Patent Application No. 2014/0297199, the content of which is incorporated by reference herein in its entirety). The first generation of this platform used serial two-photon tomography (STPT) as a method for imaging and c-fos-GFP mice expressing green fluorescent protein (GFP) under the control of the c-fos promoter (see, e.g., published U.S. Patent Application No. 2014/0297199, the content of which is incorporated by reference herein in its entirety).
The second generation of the pharmacomapping platform currently employed by Certerra uses whole-brain immunostaining and clearing procedure named iDISCO+ and whole-brain imaging by light-sheet fluorescence microscopy to detect c-fos-positive neurons in wild type mice (Renier et al., 2016).

[4] = female mother rats; cited from earlier work
[5] = cited from earlier work; remark: listed apart in the source

| Compound | adverse side-effects in clinical trials ([1]; human doses equivalent to the mouse 6 mg/kg dose) | effects in sleep onset and sleep maintenance ([1]; insomnia, three-month efficacy study) | moderation of d-amphetamine-induced locomotion (ambulatory counts) ([2]; gaboxadol 3 mg/kg, Anova p=0.007, Fisher's PLSD p=0.6) | brain activation (c-fos induction) ([3]; gaboxadol 3 mg/kg alone (HED about 15 mg)) | brain activation (c-fos induction) ([3]; gaboxadol 6 mg/kg alone (HED about 30 mg)) | brain activation (c-fos induction) ([3]; gaboxadol 20 mg/kg (HED about 100 mg)) | state of alertness compared to control rats fed placebo [4] | moderation of d-amphetamine-induced locomotion (ambulatory counts) ([2]; lithium 14.1 mg/kg) | people who stopped taking lithium because of adverse events ([5]; BD patients, epidemiological study (Öhlund et al., 2018)) [%] | patients showing good long-term efficacy ([5]; BD patients, long-term maintenance (Scott et al., 2017)) | lithium concentration in drinking water with anti-suicide effect ([5]; drinking water) | serum lithium concentration associated with mild toxicity ([5]; human) [mmol/L] | serum lithium concentration that can be life-threatening ([5]; human) | serum lithium concentration for maintenance treatment ([5]; maintenance of bipolar disorder) [mmol/L] | brain activation (c-fos induction) ([3]; lithium 85 mg/kg alone (HED about 425 mg)) | brain activation (c-fos induction) ([3]; lithium 120 mg/kg (HED about 600 mg)) | brain activation (c-fos induction) ([3]; lithium 150 mg/kg alone (HED about 750 mg)) | brain activation (c-fos induction) ([3]; lithium 200 mg/kg alone (HED about 1000 mg)) | brain activation (c-fos induction) ([3]; lithium 300 mg/kg (HED about 1500 mg)) | brain activation (c-fos induction) ([3]; lithium 400 mg/kg as printed) |
| --- | --- | --- | --- | --- | --- | --- | --- | --- | --- | --- | --- | --- | --- | --- | --- | --- | --- | --- | --- | --- |
| Oc1noc2c1CCNC2 [gaboxadol, 4,5,6,7-tetrahydroisoxazolo (5,4-c) pyridin-3-ol] | no adverse side-effects | failed to show significant effects | only modestly | did not elicit any detectable c-fos signaling activity; also recorded: neither gaboxadol at 3 mg/kg nor lithium at 85 mg/kg alone evoked any brain activation; also recorded: nor gaboxadol at 3 mg/kg (middle row; human equivalent dose about 15 mg) induced any brain activation on their own | moderate brain activation | broad cortical activation | – | – | – | – | – | – | – | – | – | – | – | – | – | – |
| O=C([O-])[O-].[Li+].[Li+] [lithium, lithium carbonate] | – | – | – | – | – | – | low | had no behavioral effect; also recorded: not moderated | 62 | approximately 30% | less than 150 μg/L | 1.2 to 2.5 | greater than 3.5 mmol/L | 0.6 to 1.0 | did not elicit any detectable c-fos signaling activity; also recorded: neither gaboxadol at 3 mg/kg nor lithium at 85 mg/kg alone evoked any brain activation; also recorded: neither lithium at 85 mg/kg (top row; human equivalent dose about 425 mg), nor gaboxadol at 3 mg/kg (middle row; human equivalent dose about 15 mg) induced any brain activation on their own | modest to moderate activation of a few structures | modest to moderate activation of a few structures; also recorded: moderate brain activation | considerably broader activation; also recorded: moderate brain activation | prominently activated; also recorded: closely matched that of gaboxadol at 20 mg/kg; also recorded: broad activation pattern | considerably broader activation |
| [6Li] [lithium-6] | – | – | – | – | – | – | very high | – | – | – | – | – | – | – | – | – | – | – | – | – |
